Read-outs that look alike come from different tables or passages of the source. No end group written: not given here. *: point of attachment. Acm = CC(=O)NC*

Data set [1] concerns the target T1, CRFR2 (Rattus norvegicus, UniProt P47866).
T1 construct: A7r5 cells, which express CRFR2; endogenous in cells; host or cells: A7r5 cells
As to the kind of experiment: stimulation of cAMP accumulation in A7r5 cells. It is filed as cell-based. Here is the method:
Urocortin 2 precursors were overexpressed in various cell lines, and their function was evaluated. Pancreatic and skin cell lines were infected with mouse urocortin 2 (mUcn 2) lentivirus. The amino acid sequence of mouse urocortin 2 is provided as SEQ ID NO:10. […] The peptide was synthesized and bioactivity was determined by the stimulation of cAMP accumulation in A7r5 cells, which express CRFR2. […] It is possible that R^0mUcn 2 could be further processed by aminopeptidases to mUcn 2(1-38). Number of assays are depicted as a superscript.
The corresponding human analog, R^0hUcn 2, was synthesized.
The EC50S were calculated based on protein determination by immunoassay and chromatographic peak height.
(Changes in cAMP serve as a functional read-out for many G protein-coupled receptors.)

Data set [2] is described as follows: QC reverse phase HPLC (trifluoroacetic acid/acetonitrile) as evidence of solubility/hydrophilicity. The settings on record: from reverse phase HPLC retention time. It is filed as physicochemical. An excerpt: A peptide extended with a hydrophilic arginine residue such as R^0hUcn 2 is likely more soluble, and therefore, a better pharmaceutical agent, than hUcn 2(1-38). […]

Setting [3] is: A7r5 cells, EC50s calculated based on protein determination by immunoassay and chromatographic peak height, read-out: cAMP A7r5 (EC50).
[4] abbreviates: A7r5 cells, which express CRFR2, range in brackets, number of assays as superscript, read-out: EC50 for stimulation of cAMP accumulation in A7r5 cells.

T1 sequence (P47866 1-431 isoform P47866-2): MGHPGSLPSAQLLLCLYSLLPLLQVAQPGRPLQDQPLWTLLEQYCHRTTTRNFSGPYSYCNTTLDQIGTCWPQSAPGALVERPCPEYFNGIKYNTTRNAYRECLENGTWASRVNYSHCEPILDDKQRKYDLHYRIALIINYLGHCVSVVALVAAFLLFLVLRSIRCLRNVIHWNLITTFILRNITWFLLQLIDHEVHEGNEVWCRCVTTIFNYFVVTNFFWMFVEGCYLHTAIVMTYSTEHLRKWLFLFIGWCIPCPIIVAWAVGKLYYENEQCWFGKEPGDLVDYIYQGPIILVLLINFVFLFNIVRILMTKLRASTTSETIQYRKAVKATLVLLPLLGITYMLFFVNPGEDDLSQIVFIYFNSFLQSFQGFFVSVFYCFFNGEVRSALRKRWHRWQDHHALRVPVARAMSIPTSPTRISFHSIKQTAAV

A word on the EC50: it is the concentration needed to bring the measured effect to its halfway point. As to “C(Acm)SPTRHPGSRIVLSLDVPIGLLQILLEQARARAAREQATTNARILARVGHC(Acm)-OH [[Cys^1,51 (Acm)]-hUcn 2(1-51)-OH)]”, the concentration for a half-maximal effect (EC50) in data set [1] (setting [3]) was 9.5 nM. Same read-out and setting: the figure for “HPGSRIVLSLDVPIGLLQILLEQARARAAREQATTNARILARV-NH2 [SRP (HPGSR-hUcn 2)]” is 0.09 nM. “IPTFQLRPQNSPQTTPRPAASESPSAAPTWPWAAQSHCSPTRHPGSRIVLSLDVPIGLLQILLEQARARAAREQATTNARILARV-NH2 [hUcn 2 prohormone]”: the midpoint of the response in data set [1], the EC50, lay at 2.3 nM. Turning to “IVLSLDVPIGLLQILLEQARARAAREQATTNARILARV-OH [hUcn 2-OH]”, in data set [1] (setting [3]), the EC50 was 90.4 nM.

On to “IVLSLDVPIGLLQILLEQARARAAREQATTNARILARVG-OH [hUcn 2-G-OH]”, for which the EC50 in data set [1] (setting [3]) was 6.3 nM. The same measure, in the same setting: as for “IVLSLDVPIGLLQILLEQARARAAREQATTNARILARVGH-OH [hUcn 2-GH-OH]”, the figure is 2.9 nM. Still for that read-out and setting: as for “IVLSLDVPIGLLQILLEQARARAAREQATTNARILARVGHC-OH [hUcn 2-GHC-OH]”, the figure is 13.9 nM. In the case of “RIVLSLDVPIGLLQILLEQARARAAREQATTNARILARV-NH2 [R^0-hUcn 2]”, the “hydrophilicity compared with hUcn 2(1-38)” value in data set [2] is listed as “significantly increased hydrophilicity”. Moreover, the EC50 in data set [1] (setting [4]) was found to be 0.027 nM.

Turning to “RVILSLDVPIGLLRILLEQARYKAARNQAATNAQILAHV-NH2 [R^0-mUcn 2]”, the EC50 in data set [1] (setting [4]) was 0.05 nM. With “TPIPTFQLLPQNSLETTPSSVTSESSSGTTTGPSASWSNSKASPYLDTRVILSLDVPIGLLRILLEQARYKAARNQAATNAQILAHV-NH2 [mUcn 2 prohormone]”, a half-maximal response in data set [1] (EC50) required 0.53 nM.

These data come from patent US20180271945A1, “UROCORTIN 2 ANALOGS AND USES THEREOF” (Research Development Foundation, priority 2009, published 2018).
